In patent US12129248B2, “Chromobox protein inhibitors and uses thereof” (Dana-Farber Cancer Institute, Inc., priority 2016, dated 2024):
Values joined by “and” are separate entries in the source; they are usually repeats but may differ in a detail not shown here. Identical values can stand only once.

The molecules below were run against Human His6-CBX7 (Homo sapiens (Human), UniProt O95931) (assay: CBX7 AlphaScreen assay (binding of CBX7 chromodomain to H3K27me3 peptide)). Details: average; His6-CBX7 / biotinylated-H3K27me3; read-out: AVG CBX7 Alpha IC50.
Chain of Human His6-CBX7 (O95931 11-69): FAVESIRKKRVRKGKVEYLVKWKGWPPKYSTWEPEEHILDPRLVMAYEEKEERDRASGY
Description: A biochemical assay was developed based on nanoparticle AlphaScreen assay to monitor the binding of recombinant CBX chromodomain (CBX7) to a methylated peptide (H3K27me3).
The primary assay uses recombinant CBX chromodomain and synthetic, trimethylated H3 histone tail peptide. When CBX/histone tail-binding occurs, AlphaScreen beads are brought in close proximity, resulting in singlet molecular oxygen transfer and production of a luminescent signal. Assay positives inhibiting the binding interaction are therefore expected to prevent complex formation, diminishing signal intensity. The AlphaScreen technology features an anti-Stokes shift in detection: due to energy transfer between beads by singlet oxygen and internal chemical reactions within the acceptor bead, the emission wavelength is blue-shifted relative to the excitation wavelength, which is impossible in traditional fluorescent assays. The relatively long path length of 200 nm that singlet molecular oxygen can travel enables reporting on full protein complexes and not just single target binding. […] Neither the small molecules being tested nor the target protein, CBX7, need to be chemically, conformationally, or behaviorally altered by tethering them to a surface or reporter that may decrease physiological relevance and beget screening artifacts. The primary assay monitors binding of the chromodomain of CBX7 to a histone tail containing a trimethylated lysine at K27, the biologically relevant interaction through which PRC binds to chromatin to repress transcription. This is a robust proximity-based assay that utilizes AlphaScreen technology (PerkinElmer). The assay consists of His6-CBX7 bound to a Ni^++ acceptor bead and the biotinylated histone tail bound to a streptavadin donor bead. Upon CBX7/H3K27me3 binding, the steptavidin bead comes into proximity with the Ni^++ bead to luminesce upon light excitation ([…]; see below).
The protocol for the CBX7 AlphaScreen was as follows: a standard alpha buffer (50 mM HEPES, 150 mM NaCl, 0.1% w/v BSA, 0.01% w/v Tween20) at pH 8.0 and make up two stock solutions at 2× final concentration in the alpha buffer. Solution A contains Human His6-CBX7 is used with biotinylated-H3K27me3 (residues 20-34), at 100 nM and 50 nM respectively. Solution B contains 20 nM streptavidin donor beads and 20 nM nickel acceptor beads. For 384 well assay formats, 10 uL of solution A is added to each well of the assay plate and the plate is spun at 1000 rpm for 30 seconds. 100 nL of experimental compounds from stock plates are delivered by robotic pin transfer using a Janus Workstation (PerkinElmer), allowing the compounds to interact with CBX7 binding prior to assay measurement, followed by another spin and an incubation room temperature. Finally, 10 uL of solution B is added to each well, the plate is spun again and then incubated at room temperature. AlphaScreen measurements are performed on an Envision 2104 (PerkinElmer) utilizing the manufacturer's protocol that has the correct excitation and emission wavelengths, cutoff filters, delay time, etc. A crosstalk calculation is also done through the Envision software to correct for luminescence for adjacent wells while reading the plate. The signal is then normalized to DMSO control wells on the compound plate prior to creation of the IC50 curves.

Structure (SMILES)	IC50
O=C(Nc1ccc(N2CCCC2)cc1)c1ccc2nc(-c3ccc(O)c(O)c3O)c(NCc3ccccc3)n2c1 [ACV-3-142, 3-(benzylamino)-N-(4-(pyrrolidin-1-yl)phenyl)-2-(2,3,4-trihydroxyphenyl)imidazo[1,2-a]pyridine-6-carboxamide]	0.66 µM
O=C(N/N=C/c1c(O)cc(O)cc1O)c1cc(-c2ccco2)nc2ccccc12 [ACV-03]	0.445 µM
O=C(N/N=C/c1ccc(N2CCCC2)cc1)c1cc(-c2ccco2)nc2ccccc12 [ACV-05]	1.88 µM
CN(C)CCCOc1ccc(/C=N/NC(=O)c2cc(-c3ccco3)nc3ccccc23)cc1 [ACV-06]	13.6 µM
O=C(O)c1cc(-c2ccco2)nc2ccccc12 [ACV-07 (2)]	194 µM
CN(C)c1ccc(CCNC(=O)c2cc(-c3ccco3)nc3ccccc23)cc1 [ACV-08]	10.3 µM
O=C(NCc1cccc(N2CCCC2)n1)c1cc(-c2ccco2)nc2ccccc12 [ACV-09]	7.39 µM
CN1CCN(c2ccc(NC(=O)c3cc(-c4ccco4)nc4ccccc34)cc2)CC1 [ACV-10]	20.2 µM
O=C(O)c1cc(-c2ccco2)nc2ccc(Br)cc12 [ACV-11]	8.51 µM
CN(C)c1ccc(CC(CO)NC(=O)c2cc(-c3ccco3)nc3ccccc23)cc1 (stereo not shown) [ACV-12, N-(1-(4-(dimethylamino)phenyl)-3-hydroxypropan-2-yl)-2-(furan-2-yl)quinoline-4-carboxamide]	6.1 µM
O=C(Nc1ccc(CCN2CCCC2)cc1)c1cc(-c2ccco2)nc2ccccc12 [ACV-13]	69.5 µM
O=C(CC1S/C(=N/N=C/c2cccnc2)NC1=O)Nc1ccc(N2CCCC2)cc1 (stereo not shown) [ACV-14 (1)]	4.41 µM
O=C(CC1S/C(=N/N=C/c2ccccn2)NC1=O)Nc1ccc(N2CCCC2)cc1 (stereo not shown) [ACV-15]	37.3 µM
O=C(CC1S/C(=N/N=C/c2ccc(C(=O)O)cc2)NC1=O)Nc1ccc(N2CCCC2)cc1 (stereo not shown) [ACV-16]	6.79 µM
O=C(CC1S/C(=N/N=C/c2ccc(O)c(O)c2O)NC1=O)Nc1ccc(N2CCCC2)cc1 (stereo not shown) [ACV-17(3)]	1.01 µM
O=C(CC1S/C(=N/N=C/c2ccc(O)c(O)c2O)NC1=O)Nc1ccc(N2CCCC2)cc1 (stereo not shown) [ACV-17(4)]	1.56 µM
O=C(CC1S/C(=N/N=C/c2ccc(O)c(O)c2O)NC1=O)Nc1ccc(N2CCCC2)cc1 (stereo not shown) [ACV-17* (P1)]	2.36 µM
O=C(CC1S/C(=N/N=C/c2ccc(O)c(O)c2O)NC1=O)Nc1ccc(N2CCCC2)cc1 (stereo not shown) [ACV-17* (P2)]	3.37 µM
COC(=O)c1ccc(-c2ccc(/C=N/N=C3\NC(=O)C(CC(=O)Nc4ccc(N5CCCC5)cc4)S3)cc2)cc1 (stereo not shown) [ACV-20]	28.6 µM
CN(C)c1ccc(/C=N/N=C2\NC(=O)C(CC(=O)Nc3ccc(N4CCCC4)cc3)S2)cc1 (stereo not shown) [ACV-21]	3.69 µM
O=C(CC1SCC(C(=O)N/N=C/c2cccnc2)NC1=O)Nc1ccc(N2CCCC2)cc1 (stereo not shown) [ACV-24]	65.3 µM
COc1cc(/C=N/NC(=O)C2CSC(CC(=O)Nc3ccc(N4CCCC4)cc3)C(=O)N2)ccc1O (stereo not shown) [ACV-25]	60.9 µM

Structure (SMILES)	IC50
O=C(CC1S/C(=N/N=C/c2ccc3cccnc3n2)NC1=O)Nc1ccc(N2CCCC2)cc1 (stereo not shown) [ACV-26]	16.6 µM
Cc1ccc(/C=N/N=C2\NC(=O)C(CC(=O)Nc3ccc(N4CCCC4)cc3)S2)cc1F (stereo not shown) [ACV-27]	33.9 µM
O=C(CC1S/C(=N/N=C/c2cncnc2)NC1=O)Nc1ccc(N2CCCC2)cc1 (stereo not shown) [ACV-28]	44.6 µM
CC(C)(C)c1ccc(/C=N/N=C2\NC(=O)C(CC(=O)Nc3ccc(N4CCCC4)cc3)S2)cc1 (stereo not shown) [ACV-29]	39 µM and 15.5 µM
O=C(CC1S/C(=N/C(=O)c2ccccc2)NC1=O)Nc1ccc(N2CCCC2)cc1 (stereo not shown) [ACV-30]	39 µM
O=C(CC1S/C(=N/Cc2cccnc2)NC1=O)Nc1ccc(N2CCCC2)cc1 (stereo not shown) [ACV-31]	404 µM
O=C(CC1S/C(=N/N=C/c2cccc(-c3ccc(C(=O)O)cc3)c2)NC1=O)Nc1ccc(N2CCCC2)cc1 (stereo not shown) [ACV-32]	23.5 µM
O=C(Cc1cccnc1)/N=C1\NC(=O)C(CC(=O)Nc2ccc(N3CCCC3)cc2)S1 (stereo not shown) [ACV-33]	56.2 µM
O=C(CC1SCC(C(=O)N/N=C/c2ccc(O)c(O)c2O)NC1=O)Nc1ccc(N2CCCC2)cc1 (stereo not shown) [ACV-34]	7.9 µM
O=C(CC1S/C(=N/N=C/c2ccc(O)c(O)c2)NC1=O)Nc1ccc(N2CCCC2)cc1 (stereo not shown) [ACV-36 (1)]	10 µM
O=C(CC1S/C(=N/N=C/c2ccc(O)c(O)c2)NC1=O)Nc1ccc(N2CCCC2)cc1 (stereo not shown) [ACV-36 (2)]	24.5 µM
COc1cccc(/C=N/N=C2\NC(=O)C(CC(=O)Nc3ccc(N4CCCC4)cc3)S2)c1OC (stereo not shown) [ACV-37]	114 µM
COc1ccc(NC(=O)CC2S/C(=N/N=C/c3cccnc3)NC2=O)cc1OC (stereo not shown) [ACV-38]	165 µM
O=C(CC1S/C(=N/N=C/c2ccc(Cl)nc2)NC1=O)Nc1ccc(N2CCCC2)cc1 (stereo not shown) [ACV-39]	26.3 µM
O=C(Cc1cnc(NC(=O)Cc2cccnc2)s1)Nc1ccc(Br)cc1 [ACV-41]	1450 µM
COc1ccc(-c2ccc3nc(-c4ccco4)cc(C(=O)NCCc4ccc(N(C)C)cc4)c3c2)cc1OC [ACV-43]	9100 µM
COc1ccc(-c2ccc3nc(-c4ccco4)cc(C(=O)Nc4ccc(N5CCN(C)CC5)cc4)c3c2)cc1OC [ACV-44]	101 µM
CN1CCN(c2ccc(NC(=O)Cc3cnc(NC(=O)Cc4cccnc4)s3)cc2)CC1 [ACV-46]	88.4 µM
O=C(Cc1cnc(NC(=O)Nc2cc(F)c(F)cc2F)s1)Nc1ccc(N2CCCC2)cc1 [ACV-47]	14400 µM
O=C(Cc1cnc(NC(=O)Cc2cccnc2)s1)Nc1ccc(N2CCCC2)cc1 [ACV-48 (1)]	403 µM
O=C(Cc1cnc(NC(=O)Cc2cccnc2)s1)Nc1ccc(N2CCCC2)cc1 [ACV-48 (2)]	607 µM
O=C(Cc1cnc(NC(=O)Nc2ccc(F)cc2)s1)Nc1ccc(N2CCCC2)cc1 [ACV-49]	17.2 µM

Structure (SMILES)	IC50
COc1cc(NC(=O)Nc2ncc(CC(=O)Nc3ccc(N4CCCC4)cc3)s2)cc(OC)c1OC [ACV-50]	7.2 µM
O=C(Cc1cnc(NC(=O)Nc2cccc(C(F)(F)F)c2)s1)Nc1ccc(N2CCCC2)cc1 [ACV-51]	24.1 µM
COc1ccc(NC(=O)Nc2ncc(CC(=O)Nc3ccc(N4CCCC4)cc3)s2)cc1OC [ACV-53]	12.5 µM
O=C(Cc1cnc(NC(=O)Nc2cccc(Cc3ccccc3)c2)s1)Nc1ccc(N2CCCC2)cc1 [ACV-54]	9.31 µM
O=C(Cc1cnc(NC(=O)Nc2cccnc2)s1)Nc1ccc(CN2CCCC2)cc1 [ACV-55]	23 µM
O=C(COCc1cccnc1)N1CCN(C(=O)c2ccc(CCN3CCCC3)cc2)CC1 [ACV-56]	64.1 µM
O=C(COCc1ccc(CN2CCCC2)cc1)N1CCN(C(=O)c2cccnc2)CC1 [ACV-57]	336 µM
C(=N\Nc1nc(-c2ccc(OCc3ccccc3)cc2)cs1)/c1cccnc1 [ACV-59]	759 µM
NC(=S)N/N=C/c1ccc(O)c(O)c1O [ACV-60]	0.364 µM
O=C(Nc1csc(N/N=C/c2ccc(O)c(O)c2O)n1)c1ccc(CCN2CCCC2)cc1 [ACV-61]	3.94 µM
Oc1ccc(/C=N/Nc2nc(-c3ccc(N4CCCC4)cc3)cs2)c(O)c1O [ACV-62]	0.861 µM
CN1CCN(CCNC(=O)CC2S/C(=N/N=C/c3ccc(O)c(O)c3O)NC2=O)CC1 (stereo not shown) [ACV-63 (2)]	22.5 µM
O=C(O)c1ccc(-c2csc(N/N=C/c3ccc(O)c(O)c3O)n2)cc1 [ACV-64]	5.22 µM
CN(C)c1ccc(CCNC(=O)CC2SC(N/N=C/c3ccc(O)c(O)c3O)=NC2=O)cc1 (stereo not shown) [ACV-66]	11.9 µM
O=C(CCC(=O)c1ccc(CN2CCCC2)cc1)NC1CCCN(C(=O)c2cccnc2)C1 (stereo not shown) [ACV-70]	46.7 µM
O=C(CCC(=O)N1CCCC(NC(=O)c2cccnc2)C1)c1ccc(CN2CCCC2)cc1 (stereo not shown) [ACV-71]	4920 µM
COc1cccc(C(=O)N2CCN(C(=O)COc3cccc(C)c3)CC2)c1OC [ACV-72]	124 µM
O=C(NCCN1CCCC1)c1ccc(-c2csc(N/N=C/c3ccc(O)c(O)c3O)n2)cc1 [ACV-73]	1.65 µM
O=C(Cc1cnc(NC(=O)C(F)(F)c2ccccc2)s1)Nc1ccc(N2CCCC2)cc1 [ACV-74]	167 µM
CN1CCN(CCNC(=O)c2ccc(-c3csc(N/N=C/c4ccc(O)c(O)c4O)n3)cc2)CC1 [ACV-75]	0.0686 µM
CN(C)c1ccc(CCNC(=O)CC2SC(N/N=C/c3ccc(N4CCCC4)cc3)=NC2=O)cc1 (stereo not shown) [ACV-76]	3.76 µM

Same assay, conditions: versus Scaffold 2 (FIG. 7)

Structure (SMILES)	improvement in binding affinity compared to the original scaffold
O=C(N/N=C/c1c(O)cc(O)cc1O)c1cc(-c2ccco2)nc2ccccc12 [ACV-03]	more than 5 fold
O=C(N/N=C/c1ccc(N2CCCC2)cc1)c1cc(-c2ccco2)nc2ccccc12 [ACV-05]	more than 5 fold
